Counter-ions that a name gives are not always drawn.
Legend:
Bet v 1.0101 [1] = molecular target: T1, Bet v 1.0101 (Betula pendula, UniProt P15494); test: crystal structure (soaked); 1H-15N HSQC NMR titration; relaxation dispersion; assay type: binding
T1 construct: gene BETVIA
T1 sequence (P15494 2-160): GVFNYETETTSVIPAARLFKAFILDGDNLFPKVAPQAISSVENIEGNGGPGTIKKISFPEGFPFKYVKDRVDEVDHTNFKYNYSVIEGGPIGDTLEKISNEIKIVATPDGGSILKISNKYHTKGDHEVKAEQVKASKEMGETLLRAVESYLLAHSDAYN

Bet v 1.0101 [2] = molecular target: T1, Bet v 1.0101; test: 1H-15N HSQC NMR titration; PFG diffusion NMR; relaxation dispersion; assay type: binding

Kd (Bet v 1.0101 [1]) | Kd (Bet v 1.0101 [2]) | Structure (SMILES)
7 µM | – | CCCCCCCCCCCCOS(=O)(=O)O [SDS, sodium dodecyl sulfate]
– | 1 µM | CCCCC(CC)CCC(CC(C)C)OS(=O)(=O)O (centres unmarked) [STS, sodium tetradecyl sulfate]
